Here are results for one compound from US11312758B2, “Peptides with vasodilatory and/or diuretic functions” (National University of Singapore, priority 2016, dated 2022).

For assay [1], the target named is T1, rat NPR-A (Rattus norvegicus, UniProt P18910).
T1 construct: expressed in transfected cells; host or cells: CHO-K1
T1 sequence (P18910 29-1057): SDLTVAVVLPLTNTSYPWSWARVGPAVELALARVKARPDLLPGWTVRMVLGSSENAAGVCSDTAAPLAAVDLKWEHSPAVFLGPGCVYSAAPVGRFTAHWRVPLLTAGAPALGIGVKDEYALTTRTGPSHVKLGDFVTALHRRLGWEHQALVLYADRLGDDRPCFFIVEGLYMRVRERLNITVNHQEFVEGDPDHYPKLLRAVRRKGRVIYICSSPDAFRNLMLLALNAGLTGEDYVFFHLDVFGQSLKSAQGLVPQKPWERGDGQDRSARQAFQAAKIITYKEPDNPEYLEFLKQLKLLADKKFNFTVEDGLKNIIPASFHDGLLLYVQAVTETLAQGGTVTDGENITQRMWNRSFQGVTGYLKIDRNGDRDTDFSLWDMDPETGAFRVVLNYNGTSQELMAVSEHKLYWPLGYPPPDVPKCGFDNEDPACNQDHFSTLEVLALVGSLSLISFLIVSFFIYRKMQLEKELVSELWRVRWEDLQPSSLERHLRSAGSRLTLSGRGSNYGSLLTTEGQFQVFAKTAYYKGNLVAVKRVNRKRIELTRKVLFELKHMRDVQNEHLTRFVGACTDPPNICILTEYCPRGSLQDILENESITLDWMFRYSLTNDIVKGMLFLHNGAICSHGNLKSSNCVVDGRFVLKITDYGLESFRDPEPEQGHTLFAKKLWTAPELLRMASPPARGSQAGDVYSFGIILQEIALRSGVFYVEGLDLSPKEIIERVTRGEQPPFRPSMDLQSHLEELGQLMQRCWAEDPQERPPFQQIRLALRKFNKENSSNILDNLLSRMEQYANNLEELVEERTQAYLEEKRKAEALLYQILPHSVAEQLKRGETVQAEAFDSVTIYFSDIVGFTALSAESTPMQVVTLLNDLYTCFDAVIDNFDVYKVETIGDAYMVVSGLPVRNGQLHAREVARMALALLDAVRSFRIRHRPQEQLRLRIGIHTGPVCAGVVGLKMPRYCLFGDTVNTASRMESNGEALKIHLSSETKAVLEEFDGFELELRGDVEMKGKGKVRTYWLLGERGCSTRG
The experiment in a line: Whole cell cGMP assay, 30 min end-point dose-response in CHO-K1 cells transiently expressing NPR-A. It is filed as cell-based. On the procedure:
(§1) The experiments were performed as described in Sridharan et al., [Biochem J 469 (2): 255-66 (2015)]. Dulbecco's modified Eagle's medium supplemented with 10% fetal bovine serum, 100 U/ml penicillin and 100 μg/ml streptomycin and 2 mM glutamine was used to grow CHO-K1 cells in a humidified incubator at 37° C. with 5% CO2. The cells were maintained by sub-culturing using 0.5% trypsin every three days. Cells (1×10^5) were seeded per well in 24-well plate and grown for 16 h. Cells in each well were transfected with 0.8 μg of plasmid encoding rat NPR-A using 2 μl of Lipofectamine™ 2000 transfection reagent. Cells were treated with the peptides 24 h after transfection.
NPR-A transfected CHO-K1 cells were treated with varying concentrations of peptides (10 nM to 10 μM dissolved in basal media containing 0.5 mM IBMX) for 30 min. The end-point accumulation of cGMP was measured after cell-lysis with 200 μl of 0.1 N HCl using Enzo life sciences cGMP ELISA kit (manufacturer's protocol).

Assay [2] deals with T1, rat NPR-A. In words: Time-chase study of cGMP accumulation (NPR-A activation kinetics) at EC50 concentration of peptide. The format is cell-based. On the procedure:
as §1
Time-chase study was performed by treating the cells with EC50 concentration of the peptides. The reactions were terminated at the indicated time-points (0, 2, 5, 10, 20 and 30 min) by treating the cells with 0.1 N HCl. The cGMP concentration in the cell lysate was measured using cGMP ELISA kit (Enzo life sciences).

In assay [3] the test system is anesthetized male SD rats. In words: In-vivo activity assay: peptide infusion in anesthetized rats (MAP, HR, PP, urine flow). Details: species or system rat. As to the method: Male Sprague-Dawley (SD) rats (220-280 g) were obtained from Invivos, Singapore. Animals were acclimatized in the Animal Holding unit, NUS for 3 days before the experiment. The experiments were conducted under the guidance and approval of Institutional Animal Care and Use Committee, NUS (041/12).
The experiments were performed as described in Sridharan et al., [Biochem J 469 (2): 255-66 (2015)]. In brief, animals were anesthetized with sodium pentobarbital (60-70 mg/kg) and catheters were inserted in femoral artery, vein and urinary bladder. The body temperature of the animals was maintained using a thermostatic heat pad at 37° C. Continuous infusions (2 ml/h) of 0.2% BSA saline (with or without peptide) was administered through the femoral vein while a pressure transducer attached to the femoral artery recorded on-line changes in mean arterial pressure (MAP), heart rate (HR) and pulse pressure (PP). Urine was collected and the volume was measured after every 10 min. Experiments encompassed control (2×10 min), experimental (1×10 min) and recovery (4×10 min) periods. All animals were euthanized at the end of the experiment in carbon-di-oxide chambers.

Structures are written as SMILES. Values joined by “and” are separate entries in the source; they are usually repeats but may differ in a detail not shown here. Equal entries are not always repeated. Positions of bridges follow the written chain, without caps; N, C: chain ends. Residues, ends and D or L forms follow the SMILES beside them.

Consider `CC[C@H](C)[C@@H]1NC(=O)[C@H](CC(=O)O)NC(=O)[C@H](CO)NC(=O)[C@H]([C@@H](C)O)NC(=O)[C@H](Cc2c[nH]cn2)NC(=O)[C@H](CO)NC(=O)[C@H]([C@@H](C)CC)NC(=O)[C@H](CCCNC(=N)N)NC(=O)[C@H](CC(=O)O)NC(=O)[C@H]([C@@H](C)CC)NC(=O)[C@H](CCCNC(=N)N)NC(=O)[C@H](CCCNC(=N)N)NC(=O)CNC(=O)[C@H](Cc2ccccc2)NC(=O)[C@@H](NC(=O)[C@H](CO)NC(=O)[C@@H](NC(=O)[C@H](CC(C)C)NC(=O)[C@H](CC(C)C)NC(=O)CN)[C@@H](C)CC)CSSC[C@@H](C(=O)N[C@@H](CCCNC(=N)N)C(=O)N[C@@H](Cc2c[nH]cn2)C(=O)O)NC(=O)CNC1=O` [^GRDK-Ring] (H-GLLISCFGRRIDRISHTSDIGCRH-OH; disulfide 6-22; N-terminus and C-terminus assumed), for which the “NPR-A activation potency, Ratio compared ANP” value in assay [1] is 2.9. Besides, the “fold higher potency compared to K-Ring” value in assay [1] (cGMP response) is listed as 5 fold. The “NPR-A activation potency, Ratio compared wild type NPs” value in assay [1] (negative = more potent than wild type) is given as −4.8. In addition, in assay [2], the “Rate of generation of cGMP, Ratio compared ANP” value was 70.5 and the “Rate of generation of cGMP, Ratio compared wild type NPs” value came to 5.0. Besides, in assay [2] (EC50 concentration of peptide), the “Rate of generation of cGMP” value is given as 0.113 pmol cGMP/pmol peptide, the “rate of generation of cGMP compared to K-Ring” value is “slightly increased rate of cGMP production” and the “time of peak / maximum accumulation of cGMP” value is on record as 10 min. In addition, in assay [3] (2 nmol/kg/min infusion), the “HR Rate of change per unit change in MAP” value is reported as 2.82 and the “PP Rate of change per unit change in MAP” value worked out at 0.7. In addition, in assay [3] (2.0 nmol/kg/min infusion), the “Heart rate Peak response” value was −44.8±20.2 BPM and −44.8 ± 20.1 BPM; the “Heart rate Peak time” value was determined as 30 min; the “Mean arterial pressure Peak response” value is −11.3 ± 4.3 mmHg; the “Mean arterial pressure Peak time” value is on record as 30 min. Moreover, in assay [3] (2.0 nmol/kg/min infusion), the “Pulse pressure Peak time” value was determined as 20 min and the “Urine flow rate Peak response” value is <2 µL/min.
